Measured values reported in patent US9126941B2, “Treatment of hyperproliferative disorders with diarylhydantoin compounds” (The Regents of the University of California, priority 2005, dated 2015).
Read-outs that look alike come from different tables or passages of the source.

How the values were obtained:
AR [1] = biological target: T1, AR (Homo sapiens, UniProt P10275); assay: cell-based; type: cell-based; conditions: for IC50 (nM) Reporter / Inhibitory activity on AR in reporter system: LNCaP-AR; for IC50 (nM) Reporter: 100 pM R1881, two days, No = did not inhibit AR response reporter; for Inhibitory activity on AR in reporter system: hormone refractory
Method: The compounds were subjected to tests using an artificial AR response reporter system in a hormone refractory prostate cancer cell line. […] After two days of incubation, reporter activities were assayed.

[2] = Ranking of compounds in tiers for utility in treating prostate cancer; conditions: assay not specified
Excerpt: The placement of compounds into tiers was based on available data coupled with analytical judgment. Data considered included in vitro assays (AR response reporter system in LNCaP cell line, PSA level measurement, MTS mitochondrial assay) and in vivo experiments (tumor size measured directly or by emission induced by luciferase reporter gene, pharmacokinetic assays based on blood plasma levels). Not every compound was subjected to each assay. […] Judgment was applied in ranking compounds relative to each other for their utility in treating prostate cancer, in particular when ranking two compounds for which the same experiments were not performed. Characteristics considered in establishing the ranking include AR antagonism activity, lack of AR agonism in hormone refractory cells, prevention of tumor growth, tumor shrinkage, and pharmacokinetic behavior, with a longer residence time in blood being advantageous.

L1AR cell line = assay: Luciferase activity of the L1AR cell line; type: cell-based; conditions: at a given concentration, 125 nmol to 1000 nmol
AR [3] = biological target: T1, AR; assay: cell-based; type: cell-based
Method: It is well established that PSA levels are indicators of AR activities in prostate cancer. […] The LNCaP-AR cells are a line of lymph node carcinoma of prostate cells transduced with a plasmid that makes express androgen receptors. […] After four days incubation, secreted PSA levels were assayed using PSA ELISA kits (American Qualex, San Clemente, Calif.)

[4] = Pharmacokinetics in FVB mice, drug concentration by HPLC
Method: Mice were divided into groups of three for each time points. Two mice were not treated with drug and two other mice were treated with vehicle solution. […]
The drug was dissolved in a mixture 1:5:14 of DMSO:PEG400:H20. (Vehicle solution) and was administered into mice through the tail vein. The animals are warmed under a heat lamp for approximately 20 minutes prior to treatment to dilate their tail vein. […] After drug administration, the animals were euthanized via CO2 inhalation at different timepoints: […], […], 2 h, 6 h, 16 h. Animals were immediately bleed after exposure to CO2 via cardiac puncture (1 ml BD syringe+27 G ⅝ needle).
The samples for HPLC analysis were prepared according to the following procedure: • Blood cells were separated from serum by centrifugation. • To 400 μl of serum were added 80 μl of a 10 μM solution of an internal standard and 520 μl of acetonitrile. Precipitation occurred. • The mixture was vortexed for 3 minutes and then placed under ultrasound for 30 minutes. • The solid particles were filtered off or were separated by centrifugation. • The filtrate was dried under an argon flow to dryness.

AR [5] = biological target: T1, AR; assay: cell-based; conditions: for Agonistic activity on AR, reporter: LN-AR, absence of R1881; for fold induction at 0.1 µM: read-out: Fold induction of AR response reporter, 0.1 μM; for fold induction at 1 µM: read-out: Fold induction of AR response reporter, 1 μM; for fold induction at 10 µM: read-out: Fold induction of AR response reporter, 10 μM
Excerpt: Table 2 lists the agonistic activities of different compounds.

AR [6] = biological target: T1, AR; assay: cell-based; type: cell-based; conditions: for Agonistic activity, secreted PSA: AR over expressed LNCaP, absence of R1881; for fold induction at 0.1 µM / fold induction at 1 µM / fold induction at 10 µM: LNCaP; for fold induction at 0.1 µM: read-out: Fold induction of endogenous PSA, 0.1 μM; for fold induction at 1 µM: read-out: Fold induction of endogenous PSA, 1 μM; for fold induction at 10 µM: read-out: Fold induction of endogenous PSA, 10 μM
LNCaP cells = assay: MTS growth assay, hormone sensitive LNCaP cells; type: cell-based
Method: FIG. 10. Inhibitory effect on growth of hormone sensitive prostate cancer cells. […] After 4 days of incubation, cell growth was measured by MTS assay.

[7] = test system: AR-overexpressed LNCaP xenograft tumors; assay: AR-overexpressed LNCaP xenograft model in castrated male SCID mice, oral once daily; type: in vivo; conditions: 1 mg per kg orally once daily, 44 days
Method: FIG. 7. […] Mice with established LN-AR xenograft tumors were randomized and treated with indicated compounds orally once daily. Tumor size was measured by caliber.
FIG. 8. […] The tumors were taken out from the mice after 44 days of treatment, tumor lysate was extracted, and PSA level in tissue lysate was determined by ELISA.
First we examined this compound on xenograft tumors established from AR-overexpressed LNCaP cells. The engineered cells in Matrigel (Collaborative Biomedical) were injected subcutaneously into the flanks of the castrated male SCID mice. Tumor size was measured weekly in three dimensions using calipers. After xenograft tumors established (tumor size reached at least 40 mm^3), mice with tumors were randomized and treated with different doses of compounds orally once daily.

[8] = test system: hormone refractory LAPC4 xenograft; assay: Hormone refractory LAPC4 xenograft model; type: in vivo, mice; conditions: 1 mg per kg orally once daily, 17 days
Method: FIG. 9. […] (A), tumor size was measured by caliber. (B), the tumors were taken out from the mice after 17 days of treatment, tumor lysate was extracted, and PSA level in tissue lysate was determined by ELISA.
This model was established from passaging of hormone sensitive prostate cancer in castrated mice, which mimics the clinical progression of prostate cancer (2).

[9] = test system: LNCaP-AR xenograft tumors; assay: LNCaP-AR xenograft in SCID mice, tumor size and luciferase imaging (RD162); type: in vivo
Method: FIG. 11 is a graph of tumor size. AR overexpressing LNCaP cells were injected in the flanks of castrated […] mice, subcutaneously. When tumors reached about 100 cubic mm, they were randomized into five groups. Each group had nine animals. […] The tumors were measured three-dimensionally, width, length and depth, using a caliper.
FIG. 12 depicts experimental results of tumor size. At day 18, the animals were imaged via an optical CCD camera, 3 hours after last dose of treatment. A ROI was drawn over the tumor for luciferase activity measurement in photon/second. The right panels is a representation of the ROIs measurements.
(A) The relative tumor volume as a function of time shown for each set of mice. (B) Images of each set of mice with photon emission associated with luciferase activity at day 31 shown as color contours. (C) Rate of photon emission associated with luciferase activity shown at several times for each set of mice.
All animal experiments were performed in compliance with the guidelines of the Animal Research Committee of the University of California at Los Angeles. Animals were bought from Taconic and maintained in a laminar flow tower in a defined flora colony. LNCaP-AR and LNCaP-vector cells were maintained in RPMI medium supplemented with 10% FBS. 10^6 cells in 100 μl of 1:1 Matrigel to RPMI medium were injected subcutaneously into the flanks of intact or castrated male SCID mice. Tumor size was measured weekly in three dimensions (length×width×depth) using calipers. Mice were randomized to treatment groups when tumor size reached approximately 100 mm^3. Drugs were given orally every day at 10 mg/kg and 50 mg/kg. To obtain pharmacodynamic readout, the animals were imaged via an optical CCD camera, 3 hours after last dose of the treatment. A ROI is drawn over the tumor for luciferase activity measurement in photon/second. The right panels were a representation of the ROIs measurements.

[10] = test system: castrated luciferase transgenic mice; assay: Castrated luciferase transgenic mice with implanted testosterone pellet, urogenital tract weight and photon emission; type: in vivo; conditions: 10 mg per kg per day, 14 days
Excerpt: FIG. 23 presents results of an experiment conducted with wild type nontransgenic mice (WT), castrated luciferase transgenic mice (Cast), and non-castrated luciferase transgenic mice (Intact). […] (A) Urogenital tract weight at 14 days. (B) Photon emission rate at 14 days.

DU-145 cells = assay: MTS growth assay, DU-145 cells; type: cell-based; conditions: prostate cancer cell line lacking AR expression
MCF7 = assay: Growth effect on MCF7 cells; type: cell-based; conditions: breast cancer cells
SkBr3 = assay: Growth effect on SkBr3 cells; type: cell-based; conditions: breast cancer cells
3T3 = assay: Growth effect on 3T3 fibroblasts; type: cell-based; conditions: normal mouse fibroblast cell line

T1 sequence (P10275 whole entry, looked up): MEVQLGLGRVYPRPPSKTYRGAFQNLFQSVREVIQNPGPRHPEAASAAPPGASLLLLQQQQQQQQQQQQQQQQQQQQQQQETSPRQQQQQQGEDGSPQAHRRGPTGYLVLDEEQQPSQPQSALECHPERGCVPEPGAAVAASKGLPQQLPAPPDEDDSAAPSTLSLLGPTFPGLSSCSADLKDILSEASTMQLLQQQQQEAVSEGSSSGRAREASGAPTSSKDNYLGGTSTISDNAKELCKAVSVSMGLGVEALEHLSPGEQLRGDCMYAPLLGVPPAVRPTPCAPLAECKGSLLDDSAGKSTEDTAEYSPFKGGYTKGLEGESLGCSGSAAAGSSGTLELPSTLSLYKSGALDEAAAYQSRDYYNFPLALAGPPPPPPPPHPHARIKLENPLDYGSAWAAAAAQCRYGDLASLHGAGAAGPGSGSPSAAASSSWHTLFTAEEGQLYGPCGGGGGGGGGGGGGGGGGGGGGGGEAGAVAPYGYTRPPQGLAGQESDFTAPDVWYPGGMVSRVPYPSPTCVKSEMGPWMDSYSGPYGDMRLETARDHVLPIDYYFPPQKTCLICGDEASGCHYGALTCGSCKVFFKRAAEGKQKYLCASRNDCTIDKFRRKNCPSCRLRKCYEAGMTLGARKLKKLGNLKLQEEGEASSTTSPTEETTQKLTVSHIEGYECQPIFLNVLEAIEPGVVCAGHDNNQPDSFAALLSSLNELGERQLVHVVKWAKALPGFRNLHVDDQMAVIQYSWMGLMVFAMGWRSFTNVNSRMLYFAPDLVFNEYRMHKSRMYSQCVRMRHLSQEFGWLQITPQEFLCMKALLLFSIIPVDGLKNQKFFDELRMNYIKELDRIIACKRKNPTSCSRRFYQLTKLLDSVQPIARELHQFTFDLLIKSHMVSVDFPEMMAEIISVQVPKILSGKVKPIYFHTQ

## N#Cc1ccc(N2C(=S)N(c3ccc(C#N)c(C(F)(F)F)c3)C(=O)C23CCCC3)cc1 [RD54, 4-[1-(4-cyanophenyl)-4-oxo-2-thioxo-1,3-diazaspiro[4.4]non-3-yl]-2-trifluoromethylbenzonitrile]
AR [1]
  IC50: 469 nM
[2]
  Indication of agonism: could act as an agonist

## CNC(=O)c1ccc(N2C(=S)N(c3ccc(C#N)c(C(F)(F)F)c3)C(=O)C23CCC3)cc1 [RD161, N-methyl-4-[7-(4-cyano-3-trifluoromethylphenyl)-8-oxo-6-thioxo-5,7-diazaspiro[3.4]oct-5-yl]benzamide]
AR [1]
  Luciferase activity in LNCaP-AR cells (FIG. 3): acted to reduce luciferase activity
AR [1]; 500 nM
  Rank order, most active to least active, relative luciferase activity (FIG. 3): RD152>RD153>RD145>RD163>RD161=RD162>bicalutamide
L1AR cell line
  Luciferase activity, L1AR cell line (FIG. 24): less than the luciferase activity upon exposure to RD149

## CNC(=O)CCCc1ccc(N2C(=S)N(c3ccc(C#N)c(C(F)(F)F)c3)C(=O)C23CCC3)cc1 [RD131, 4-{4-[7-(4-Cyano-3-trifluoromethylphenyl)-8-oxo-6-thioxo-5,7-diaza-spiro[3.4]oct-5-yl]phenyl}-N-methyl-butyramide]
AR [1]
  IC50: 92 nM
AR [1]; assay not specified
  IC50 compared with bicalutamide (FIG. 15): much lower than the IC50 for bicalutamide
AR [3]; 500 nM
  Rank order, most active to least active, relative PSA level (FIG. 4): RD138>RD131>RD37>RD133>RD134>RD137>RD138>RD135>bicalutamide
AR [3]; at concentrations of 1000 nM
  Decrease in PSA level of LNCaP-AR cells, comparison (FIG. 4): greater decrease in PSA level of LNCaP-AR cells than RD133, RD134, and RD138
AR [3]; for a given dose / concentration
  PSA level, LN/AR cell line, comparison: less than the PSA level upon exposure to RD128 and RD129
AR [3]; various doses
  PSA levels of LN-AR cells (FIG. 14): PSA levels decreased
[4]; mice
  Pharmacokinetic behavior, residence time in blood: metabolize fast
[4]; steady-state concentration in mice plasma, 10 mg/kg
  Css, 10 mg/kg [μM]: 0.39 µM
[4]; steady-state concentration in mice plasma, 25 mg/kg
  Css, 25 mg/kg [μM]: 0.43 µM
[4]; steady-state concentration in mice plasma, 50 mg/kg
  Css, 50 mg/kg [μM]: 0.40 µM
[2]
  Activity (words, overall): particularly advantageous

## CN1C(=S)N(c2ccc(C#N)c(C(F)(F)F)c2)C(=O)C12CCCC2 [RD75, 4-(1-methyl-4-oxo-2-thioxo-1,3-diazaspiro[4.4]non-3-yl)-2-trifluoromethylbenzonitrile, reference compound]
AR [1]
  IC50 (nM) Reporter: No
  Inhibitory activity on AR in reporter system: no inhibitory activities
AR [3]
  IC50 (nM) PSA: No
AR [5]
  Agonistic activity on AR, reporter: strongly activated AR
  fold induction at 0.1 µM: 17
  fold induction at 1 µM: 16.6
  fold induction at 10 µM: 33.8
AR [6]
  Agonistic activity, secreted PSA: stimulated PSA expression
  fold induction at 0.1 µM: 8.13
  fold induction at 1 µM: 18.2
  fold induction at 10 µM: 17.5

## CC(O)(CS(=O)(=O)c1ccc(F)cc1)C(=O)Nc1ccc(C#N)c(C(F)(F)F)c1 (centres unmarked) [Bicalutamide, N-[4-cyano-3-(trifluoromethyl)phenyl]-3-[(4-fluorophenyl)sulfonyl]-2-hydroxy-2-methylpropanamide, reference compound]
LNCaP cells; dose-dependent
  Inhibition of hormone sensitive LNCaP cell growth (MTS): mildly inhibited
[7]
  Growth of LNCaP-AR xenograft tumors (FIG. 7a): did not inhibit growth
[8]
  Growth of hormone refractory LAPC4 xenograft (FIG. 9a): did not inhibit
  PSA expression in hormone refractory LAPC4 xenograft (FIG. 9b): did not inhibit
[9]; 10 or 50 mg/kg orally every day, 18 days
  Tumor growth / tumor volume over time (FIG. 11): tumors continued to grow
[9]; day 18, 3 hours after last dose
  Photon emission associated with luciferase activity (FIG. 12): remained about the same or increased
[10]
  Photon emission associated with luciferase activity (FIG. 23): decrease
  Urogenital tract weight (FIG. 23): decrease

## Cc1ccc(N2C(=S)N(c3ccc(C#N)c(I)c3)C(=O)C2(C)C)cc1 [RD100]
[2]
  Activity (words, overall): good activity

## Cc1ccc(N2C(=S)N(c3ccc(C#N)c(Cl)c3)C(=O)C2(C)C)cc1 [RD72]
[2]
  Activity (words, overall): very poor activity

## Cc1ccc(N2C(=S)N(c3ccc(C#N)c(C(F)(F)F)c3)C(=O)C2(C)C)cc1 [RD7, 4-[3-(4-methylphenyl)-4,4-dimethyl-5-oxo-2-thioxoimidazolidin-1-yl]-2-trifluoromethyl-benzonitrile]
DU-145 cells
  Growth inhibitory effect on DU-145 cells: no growth inhibitory effect
MCF7
  Growth effect on MCF7: no growth effect
SkBr3
  Growth effect on SkBr3: no growth effect
3T3
  Growth effect on 3T3: no growth effect
LNCaP cells; FIG. 10, MTS
  Potency relative to bicalutamide on hormone sensitive prostate cancer cells: 10 fold

## CN1C(=O)N(c2ccc(C#N)c(C(F)(F)F)c2)C(=O)C12CCC2 [RD74, 4-(5-methyl-6,8-dioxo-5,7-diazaspiro[3.4]oct-7-yl)-2-trifluoromethylbenzonitrile, reference compound]
AR [1]
  IC50 (nM) Reporter: No
  Inhibitory activity on AR in reporter system: no inhibitory activities
AR [3]
  IC50 (nM) PSA: No
AR [5]
  Agonistic activity on AR, reporter: strongly activated AR
  fold induction at 0.1 µM: 11.4
  fold induction at 1 µM: 14.3
  fold induction at 10 µM: 30.6
AR [6]
  Agonistic activity, secreted PSA: stimulated PSA expression
  fold induction at 0.1 µM: 7.5
  fold induction at 1 µM: 15.2
  fold induction at 10 µM: 23.8
